Several values for one entry are separate records, joined by “and”; a condition that tells them apart may be missing. Equal entries are not always repeated.
Target: T1, THIK-1 I139A (Homo sapiens, UniProt Q9HB14, I139A)
T1 construct: expressed in transfected cells; host or cells: Xenopus oocytes (mRNA injection)
T1 sequence (Q9HB14 1-408 I139A): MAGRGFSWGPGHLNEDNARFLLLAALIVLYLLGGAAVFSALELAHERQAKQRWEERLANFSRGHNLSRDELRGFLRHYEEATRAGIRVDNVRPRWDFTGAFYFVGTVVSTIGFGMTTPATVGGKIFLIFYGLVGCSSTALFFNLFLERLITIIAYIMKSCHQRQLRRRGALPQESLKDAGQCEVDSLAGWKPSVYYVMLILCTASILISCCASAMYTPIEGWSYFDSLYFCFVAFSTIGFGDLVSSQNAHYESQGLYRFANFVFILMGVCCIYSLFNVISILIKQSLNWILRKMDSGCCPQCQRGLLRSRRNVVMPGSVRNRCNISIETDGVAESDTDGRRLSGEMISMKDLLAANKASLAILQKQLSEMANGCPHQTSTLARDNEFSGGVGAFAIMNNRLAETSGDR
Test: Inside-out excised patch recordings, oocytes, THIK-1 I139A mutant
Format: cell-based
Conditions: for τ of 1 mM TPenA block / τ of 1 mM TPenA release: I139A; for Normalized currents: THIK-1 I139A
Excerpt: Human K2P13.1 THIK-1 (GenBank accession number: NM_022054) and human K2P12.1 THIK-2 (NM_022055.1) were used in this study. For functional expression studies, the respective K^+ channel subtype coding sequences were subcloned into the oocyte expression vector pSGEM or the dual-purpose expression vector pFAW[41] and verified by sequencing. All mutant channels were obtained by site-directed mutagenesis and verified by sequencing. To increase surface expression and macroscopic currents, measurements of THIK-2 channels used a mutated ER retention motif, (R11A R12A R14A R15A R16A; THIK-2*)[20]. Vector DNA was linearized with NheI or MluI, and mRNA was synthesized in vitro using the SP6 or T7 AmpliCap Max High Yield Message Maker Kit (Cellscript, USA) or HiScribe T7 ARCA mRNA Kit (New England Biolabs).
Two-electrode voltage–clamp (TEVC) studies were performed in Xenopus oocytes. All animal use conformed to the Guide for the Care and Use of Laboratory Animals (NIH Publication 85–23), and all experiments using Xenopus toads were approved by the local ethics panels. Oocytes were stored at 17 °C in ND96 recording solution composed of (in mM): 96 NaCl, 2 KCl, 1.8 CaCl2, 1 MgCl2, 5 HEPES (pH 7.5 adjusted with NaOH and HCl), supplemented with Na-pyruvate (275 mg L^–1), theophylline (90 mg L^–1) and gentamicin (50 mg L^–1). Oocytes were injected with 1 ng mRNA for WT or mutant channels, and were incubated for 24–48 h at 17 °C. Two-electrode voltage clamp recordings were then performed as previously described[42],[43]. For macroscopic patch–clamp measurements, oocytes were obtained as described above incubated at 17 °C in a solution containing (mM): 54 NaCl, 30 KCl, 2.4 NaHCO3, 0.82 MgSO4 ×7 H2O, 0.41 CaCl2, 0.33 Ca(NO3)2 ×4 H2O and 7.5 TRIS (pH 7.4 adjusted with NaOH and HCl) for 1–4 days before use. Excised patch recordings in inside-out configuration conditions were performed at room temperature. Patch pipettes were made from thick-walled borosilicate glass GB 200TF-8P (Science Products), had resistances of 0.2–0.5 MΩ (tip diameter, 10–25 µm) and filled with a pipette solution (in mM): 120 KCl, 10 HEPES and 3.6 CaCl2 (pH 7.4 adjusted with KOH and HCl). Intracellular bath solutions and compounds were applied to the cytoplasmic side of excised patches for the various K^+ channels through a gravity flow multi-barrel pipette system. The intracellular solution had the following composition (in mM): 120 KCl, 10 HEPES, 2 EGTA and 1 pyrophosphate (pH adjusted with KOH and HCl). Currents were recorded with an EPC10 amplifier (HEKA Electronics) and sampled at 10 kHz or higher, with filtering set to 3 kHz (–3 dB) or higher, as appropriate for sampling rate. For measurements of GPCR activation, whole-cell currents were recorded for THIK-1 in transiently transfected HEK-293 cells. Cells were stimulated by a ramp protocol between −100 and +60 mV (holding potential, −80 mV). The pipette solution was composed of (in mM): 140 KCl, 2 MgCl2, 1 CaCl2, 2.5 EGTA and 10 HEPES (pH 7.3 adjusted with KOH and HCl). The extracellular bath solution had the following composition (in mM): 135 NaCl, 5 KCl, 2 MgCl2, 2 CaCl2, 10 glucose and 10 HEPES pH (pH 7.3 adjusted with NaOH and HCl). Oxotremorine M (Oxo-M) was added to extracellular bath solution to obtain the final concentration. Single-channel currents were recorded with an Axopatch 200B amplifier through a Digidata 1440A digitizer (Molecular Devices). Data were filtered at 2 kHz and recorded at a 200-kHz sampling rate with the program Clampex (Molecular Devices). Pipette solution and bath solution for cell-attached recordings contained (in mM): 140 KCl, 2 MgCl2, 1 CaCl2 and 10 HEPES (pH 7.4 adjusted with KOH and HCl). For inside-out recordings, the bath solution contained (in mM): 140 KCl, 2 MgCl2, 1 CaCl2 and 10 HEPES (pH 7.2 adjusted with KOH and HCl). All experiments were conducted at room temperature. […]

SMILES: CCCCC[N+](CCCCC)(CCCCC)CCCCC [TPenA, tetrapentylammonium]
- τ of 1 mM TPenA block (individual recordings): 0.150 s and 0.087 s and 0.338 s and 0.121 s and 0.235 s and 0.061 s and 0.088 s and 0.065 s and 0.063 s and 0.057 s and 0.086 s and 0.068 s and 0.117 s and 0.145 s and 0.215 s and 0.129 s and 0.101 s and 0.147 s and 0.113 s and 0.270 s and 0.151 s and 0.198 s and 0.133 s
- τ of 1 mM TPenA release (individual recordings): 1.320 s and 0.719 s and 0.852 s and 0.882 s and 0.634 s and 0.828 s and 0.460 s and 0.897 s and 0.583 s and 1.759 s and 0.311 s and 0.642 s and 0.558 s and 0.489 s and 0.435 s and 0.476 s and 0.409 s and 0.565 s and 0.635 s and 0.683 s and 0.647 s and 0.518 s and 0.501 s
- τ of 1 mM TPenA block (mean): 0.13 s
- τ of 1 mM TPenA release (mean): 0.68 s
- Normalized currents (TPenA 0.1 µM): 1.00
- Normalized currents (TPenA 1 µM): 0.93
- Normalized currents (TPenA 4 µM): 0.83
- Normalized currents (TPenA 15.6 µM): 0.67
- Normalized currents (TPenA 62.5 µM): 0.44
- Normalized currents (TPenA 250 µM): 0.22
- Normalized currents (TPenA 1000 µM): 0.11
- Normalized currents (TPenA 4000 µM): 0.08
